Legend:
[1] = tested on: CHO cells expressing an nanobody; test: Fed batch culture of CHO cells expressing a nanobody in shake flasks, FeSO4 addition on day 6; format: cell-based, Chinese hamster; conditions: 1 mM iron added on day 6
Procedure: CHO cells expressing an nanobody were grown by fed batch culture in shake flasks. Cells were initially cultured in 7% CO2 incubator at 37° C. for 0-4 days and shifted to 31° C. after day 4. FeSO4 was added on day 6 to effect a concentration of 1 mM of iron in the cell culture medium. Cells were subjected to cell density, viability, titer, lactate level and Qp analysis at various time points throughout the cell culture process as described in Example 1.

[2] = tested on: cell line producing a monoclonal antibody (clone 2.8); test: Fed batch culture of clone 2.8 in shake flasks, Fe addition on day 0 or day 9; format: cell-based; conditions: 600 μM added on day 0
Procedure: This experiment is designed to test whether a high concentration of Fe added at day 0 would have an advantageous effect. […] Seed density was 1.5×10^6 cells/mL. The cells were cultured for 14 days. The basal medium was a chemically defined basal medium supplemented with amino acids including 4 mM glutamine. Feed medium is a chemically defined concentrated feed medium. Fe-citrate or FeSO4 was added on day 0 or day 9 to effect a concentration of 600 μM of iron in the cell culture medium. Cells were subjected to cell density, viability, titer and Qp analysis at various time points throughout the cell culture process as described in previous examples.

Compound | Qp ([1]; control 10 μg/e6/day, FIG. 9) [μg/e6/day] | lactate level ([1]; control increased to 2.24 g/L on day 15, FIG. 10) [g/L] | titer ([1]; read on day 15, control 1.5 g/L, FIG. 8) [g/L] | viability ([1]; read on day 15, control 70%, FIG. 7) [%] | cell growth ([2]; FIG. 11) | viability on day 14 ([2]; control 74-80%, FIG. 12) | Qp ([2]; throughout the culture, FIG. 13)
O=S(=O)([O-])[O-].[Fe+2] [FeSO4] | 20 | ~0 | 3.2 | 96 |  |  | 
ferric citrate [Fe-citrate] |  |  |  |  | increased cell growth at early stage | about 75% | lower than all other conditions

Source: patent US20140322758A1, “ADDITION OF IRON TO IMPROVE CELL CULTURE” (Pfizer Inc., priority 2011, published 2014)
